# Like-named read-outs stand apart in the source and are kept apart here.
# Assays:
# C. albicans [1] = type: cell-based, Candida albicans
# Other species of Candida = type: cell-based, Candida spp.
# [2] = system: C. auris clinical strains; assay: organism not typed; type: cell-based, Candida auris; conditions: for MIC: range, 78 strains from patients with COVID-19
# [3] = system: Exophiala phaeomuriformis; assay: MIC, CLSI M27-A3; type: cell-based; conditions: read-out: MIC values
# How it was run: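 Isolate recovered from aviation kerosene by 0.22 μm membrane filtration, grown on potato dextrose agar at 30 °C for seven days and identified by ITS sequencing. Susceptibility to clinical antifungals tested per CLSI M27-A3.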
# C. albicans [4] = assay: Candidemia Netherlands, MIC distributions against EUCAST ECOFF; type: cell-based, Candida albicans
# F. verticillioides = assay: Etest susceptibility; type: cell-based, Fusarium verticillioides
# C. fermentati = assay: EUCAST E. Def 7.3.2 microdilution; type: cell-based, Candida fermentati; conditions: n = 2
# C. parapsilosis = type: cell-based, Candida parapsilosis
# Trichosporon isolates = assay: CLSI broth microdilution; type: cell-based, Trichosporon spp.
# C. guilliermondii = assay: EUCAST E. Def 7.3.2 microdilution; type: cell-based, Candida guilliermondii; conditions: for MIC50 / MIC90 / GM / MIC Range: n = 62
# [5] = system: biofilm of filamentous fungi; assay: Biofilm XTT-menadione assay; type: cell-based
# Procedure: Materials & Methods: Eight strains are studied: Fusarium solani, Fusarium dimerum, Lomentospora prolificans, Scedosporium apiospermum, Aspergillus flavus, Aspergillus fumigatus and two azole resistant A. fumigatus.
# Biofilms were formed after a 90-min adhesion phase followed by the addition of RPMI medium and after a 48 h at 37 °C. Antifungals at different concentrations were added, either after the adhesion phase or after the 48 h of incubation to study their effect on the formation and on the preformed biofilm. After washing, a mixture of XTT-menadione was added to the wells. After 60 min at 37 °C, the OD (optical density) is measured at 450 and 630 nm. An optical microscope observation allows the visualization of elements of the biofilm.
# [6] = system: A. fumigatus clinical isolates; assay: Susceptibility of clinical isolates from CF patients; conditions: all 10 clinical isolates
# C. glabrata = type: cell-based, Candida glabrata
# C. auris = assay: CLSI M27-A3 broth microdilution; type: cell-based, Candida auris; conditions: for MIC: Candidozyma auris, read-out: GM MIC
# [7] = system: nine strains of Candida spp.; assay: CLSI M27-A3 broth microdilution; type: cell-based; conditions: nine strains; for MIC: Candida, read-out: GM MIC
# C. tropicalis = type: cell-based, Candida tropicalis
# C. krusei = type: cell-based, Candida krusei
# Cryptococcal isolates = assay: CLSI broth micro dilution; type: cell-based, Cryptococcus neoformans, C. gattii
# [8] = system: C. auris Isolate B and Isolate C; assay: microbe, parasite or virus in culture; type: cell-based, Candida auris; conditions: for reduction in MIC: Isolate C with ERG11 WT in place of K143R
# [9] = system: A. fumigatus veterinary isolates; assay: EUCAST microdilution of veterinary isolates; type: cell-based, Aspergillus fumigatus
# Procedure: All have been confirmed as A. fumigatus by MALDI-TOF MS using the BCCM/IHEM database. The antifungal susceptibility was evaluated using the microdilution EUCAST method. Cyp51A gene sequencing has been performed on all resistant isolates.
# A. fumigatus complex = conditions: share of isolates, n = 59, EUCAST clinical breakpoints
# A. fumigatus strains = assay: EUCAST E.DEF 9.3.2 broth microdilution; type: cell-based, Aspergillus fumigatus; set-up: MIC Range: unit not given beside the values; MIC50 / MIC90: unit not given here
# Procedure: Methods: The research was conducted on 29 A. fumigatus strains. Minimum inhibitory concentrations (MIC) were detected by broth microdilution method (BM) following EUCAST definitive document E.DEF 9.3.2 and E-test in accordance with manufacturer instructions.
# McLDM-F1-CPR = assay: microbe, parasite or virus in culture; type: cell-based, Saccharomyces cerevisiae AD2Δgal; conditions: Saccharomyces cerevisiae, read-out: mean MIC
# McLDM-F5 = assay: microbe, parasite or virus in culture; type: cell-based, Saccharomyces cerevisiae AD2Δgal; conditions: Saccharomyces cerevisiae, read-out: mean MIC
smiles,measurement,setting,value
C[C@@H]1[C@H](O)[C@@H](C)/C=C/C=C/C=C/C=C/C=C/C=C/C=C/[C@H](O[C@@H]2O[C@H](C)[C@@H](O)[C@H](N)[C@@H]2O)C[C@@H]2O[C@](O)(C[C@@H](O)C[C@@H](O)[C@H](O)CC[C@@H](O)C[C@@H](O)CC(=O)O[C@H]1C)C[C@H](O)[C@H]2C(=O)O [amphotericin B],"I (intermediate) isolates, n (%)",C. albicans [1],4 (2%)
same,"S (sensitive) isolates, n (%)",C. albicans [1],196 (97%)
same,"I (intermediate) isolates, n (%)",Other species of Candida,0 (0%)
same,"S (sensitive) isolates, n (%)",Other species of Candida,26 (100%)
same,MIC,[2],0.12 to 2 µg/mL
same,MIC,[3],2 µg/mL
same,isolates within the wildtype distribution range,C. albicans [4],100%
same,"minimum inhibitory concentration (MIC), in words",F. verticillioides,lower values
same,GM,C. fermentati,0.125 µg/mL
same,MIC Range,C. fermentati,0.125 to 0.25 µg/mL
same,"I (intermediate) isolates, n (%)",C. parapsilosis,1 (0.6)
same,"S (sensitive) isolates, n (%)",C. parapsilosis,169 (98.3%)
same,MIC,Trichosporon isolates; read-out: GM MIC,0.9 µg/mL
same,MIC50,C. guilliermondii; Meyerozyma guilliermondii,0.25 µg/mL
same,MIC90,C. guilliermondii; Meyerozyma guilliermondii,0.25 µg/mL
same,GM,C. guilliermondii,0.177 µg/mL
same,MIC Range,C. guilliermondii,0.06 to 0.5 µg/mL
same,number of strains with 100% inhibition of biofilm formation,[5],two
same,susceptibility,[6],susceptible
same,"I (intermediate) isolates, n (%)",C. glabrata,2 (2.8%)
same,"S (sensitive) isolates, n (%)",C. glabrata,69 (97.2%)
same,MIC Range,C. auris,0.125 to 2 µg/mL
same,MIC,C. auris,0.43 µg/mL
same,MIC,[7],0.13 µg/mL
same,MIC Range,[7],0.03 to 2 µg/mL
same,"I (intermediate) isolates, n (%)",C. tropicalis,0 (0%)
same,"S (sensitive) isolates, n (%)",C. tropicalis,57 (100%)
same,"S (sensitive) isolates, n (%)",C. krusei,7 (100%)
same,MIC50,Cryptococcal isolates,0.25 µg/mL
same,MIC90,Cryptococcal isolates,0.5 µg/mL
CCC(C)n1ncn(-c2ccc(N3CCN(c4ccc(OCC5COC(Cn6cncn6)(c6ccc(Cl)cc6Cl)O5)cc4)CC3)cc2)c1=O (centres unmarked) [itraconazole],change of MIC,[8],largely unchanged
same,reduction in MIC,[8],unchanged
same,MIC,[2],0.12 to 16 µg/mL
same,MIC,[3],0.25 µg/mL
same,isolates with values equal to the clinical breakpoint,[9],33%
same,resistance of isolates,[9],No resistance
same,"minimum inhibitory concentration (MIC), in words",F. verticillioides,high values
same,susceptibility,[6],susceptible
same,MIC Range,C. auris,0.125 to 1 µg/mL
same,MIC,C. auris,0.12 µg/mL
same,MIC,[7],0.11 µg/mL
same,Resistance,A. fumigatus complex,5%
same,MIC50,A. fumigatus strains; 28 h,0.5
same,MIC90,A. fumigatus strains; 28 h,0.5
same,MIC Range,"A. fumigatus strains; 28 h, 29 strains",0.5–8
same,MIC50,A. fumigatus strains; 48 h,0.5
same,MIC90,A. fumigatus strains; 48 h,1
same,MIC Range,A. fumigatus strains; 48 h,0.5–16
C[C@@H](c1ncncc1F)[C@](O)(Cn1cncn1)c1ccc(F)cc1F [voriconazole],"I (intermediate) isolates, n (%)",C. albicans [1],0 (0%)
same,"R (resistant) isolates, n (%)",C. albicans [1],S 200 (99%) I 0 (0%) R 2 (1%)
same,"S (sensitive) isolates, n (%)",C. albicans [1],200 (99%)
same,reduction in MIC,[8],2 fold
same,"I (intermediate) isolates, n (%)",Other species of Candida,0 (0%)
same,"R (resistant) isolates, n (%)",Other species of Candida,S 26 (100%) I 0 (0%) R 0 (0%)
same,"S (sensitive) isolates, n (%)",Other species of Candida,26 (100%)
same,MIC,[2],0.06 to 8 µg/mL
same,MIC,McLDM-F1-CPR,0.29 µg/mL
same,MIC,[3],0.25 µg/mL
same,MIC,McLDM-F5,0.58 µg/mL
same,isolates in the area of technical uncertainty (ATU),[9],47%
same,"minimum inhibitory concentration (MIC), in words",F. verticillioides,lower values
same,"I (intermediate) isolates, n (%)",C. parapsilosis,1 (0.6%)
same,"R (resistant) isolates, n (%)",C. parapsilosis,S 170 (98.8%) I 1 (0.6%) R 1 (0.6%)
same,"S (sensitive) isolates, n (%)",C. parapsilosis,170 (98.8%)
same,MIC,Trichosporon isolates; read-out: GM MIC,0.075 µg/mL
same,number of strains with 100% inhibition of biofilm formation,[5],one
same,susceptibility,[6],susceptible
same,"I (intermediate) isolates, n (%)",C. glabrata,2 (2.8%)
same,"R (resistant) isolates, n (%)",C. glabrata,S 62 (87.3%) I 2 (2.8%) R 7 (9.9%)
same,"S (sensitive) isolates, n (%)",C. glabrata,62 (87.3%)
same,"I (intermediate) isolates, n (%)",C. tropicalis,0 (0%)
same,"R (resistant) isolates, n (%)",C. tropicalis,S 57 (100%) I 0 (0%) R 0 (0%)
same,"S (sensitive) isolates, n (%)",C. tropicalis,57 (100%)
same,"S (sensitive) isolates, n (%)",C. krusei,7 (100%)
same,Resistance,A. fumigatus complex,9%
same,MIC50,A. fumigatus strains; 28 h,0.5
same,MIC90,A. fumigatus strains; 28 h,1
same,MIC Range,"A. fumigatus strains; 28 h, 29 strains",0.25–4
same,MIC50,A. fumigatus strains; 48 h,1
same,MIC90,A. fumigatus strains; 48 h,2
same,MIC Range,A. fumigatus strains; 48 h,0.25–8
OC(Cn1cncn1)(Cn1cncn1)c1ccc(F)cc1F [fluconazole],"I (intermediate) isolates, n (%)",C. albicans [1],0 (0%)
same,"R (resistant) isolates, n (%)",C. albicans [1],3 (1.5%)
same,"S (sensitive) isolates, n (%)",C. albicans [1],199 (98.5%)
same,decrease in MIC,[8],4 fold
same,MIC,"[8]; Candidozyma auris, Isolate B (ERG11 Y132F, TAC1B A583S)",128 µg/mL
same,reduction in MIC,[8],8 fold
same,"I (intermediate) isolates, n (%)",Other species of Candida,0 (0%)
same,"R (resistant) isolates, n (%)",Other species of Candida,0 (0%)
same,"S (sensitive) isolates, n (%)",Other species of Candida,25 (100%)
same,Resistance,[2]; CDC tentative breakpoints,100%
same,MIC,McLDM-F1-CPR,14.7 µg/mL
same,MIC,McLDM-F5,42.7 µg/mL
same,isolates within the wildtype distribution range,C. albicans [4],96.8%
same,"minimum inhibitory concentration (MIC), in words",F. verticillioides,high values
same,GM,C. fermentati,2 µg/mL
same,MIC Range,C. fermentati,2 µg/mL
same,"I (intermediate) isolates, n (%)",C. parapsilosis,0 (0%)
same,"R (resistant) isolates, n (%)",C. parapsilosis,2 (1.2%)
same,"S (sensitive) isolates, n (%)",C. parapsilosis,171 (98.8%)
same,MIC,Trichosporon isolates; read-out: high MICs,8 µg/mL
same,MIC of non wild-type isolates,C. guilliermondii,64 µg/mL
same,MIC50,C. guilliermondii; Meyerozyma guilliermondii,8 µg/mL
same,MIC90,C. guilliermondii; Meyerozyma guilliermondii,16 µg/mL
same,MIC,"C. guilliermondii; Meyerozyma guilliermondii, read-out: MIC of non wild-type isolates",32 µg/mL
same,GM,C. guilliermondii,7.655 µg/mL
same,MIC Range,C. guilliermondii,0.125 to 64 µg/mL
same,"I (intermediate) isolates, n (%)",C. glabrata,3 (4.2%)
same,"R (resistant) isolates, n (%)",C. glabrata,12 (16.9%)
same,"S (sensitive) isolates, n (%)",C. glabrata,56 (78.9%)
same,MIC Range,C. auris,1 to 32 µg/mL
same,MIC,C. auris,5.26 µg/mL
same,MIC,[7],4.66 µg/mL
same,MIC Range,[7],0.5 to 32 µg/mL
same,"I (intermediate) isolates, n (%)",C. tropicalis,0 (0%)
same,"R (resistant) isolates, n (%)",C. tropicalis,0 (0%)
same,"S (sensitive) isolates, n (%)",C. tropicalis,57 (100%)
same,MIC50,Cryptococcal isolates,1 µg/mL
same,MIC90,Cryptococcal isolates,4 µg/mL
